Data from BindingDB's records for doi:10.1016/j.bmc.2012.12.010 (Duquesne University, 2013).

Test: Inhibition of MDR1 (unknown origin) transfected in human SKOV3 cells assessed as growth inhibition after 48 hrs by SRB assay

| Compound | IC50 [nM] |
| --- | --- |
| CCN(c1ccc(OC)cc1)c1nc(N)nc2[nH]c3ccccc3c12 | 72 |
| CCOc1ccc(N(C)c2nc(N)nc3[nH]c4ccccc4c23)cc1 | 29 |
